Values of other authors in patent US20170071955A1, “METHOD OF STABILIZING WEIGHT AFTER A WEIGHT-LOSS DIET USING PHYTOECDYSONES” (BIOPHYTIS SA, priority 2011, published 2017).

Details: mammals on a fattening hypercaloric diet

CC(C)(O)CC[C@@H](O)[C@](C)(O)[C@H]1CC[C@@]2(O)C3=CC(=O)[C@@H]4C[C@@H](O)[C@@H](O)C[C@]4(C)[C@H]3CC[C@]12C [20-hydroxyecdysone]
effect on body fat: reduce the increase of body fat
